Measured values as given in EP3150203B1, “COMPOUNDS WITH (1E,6E)-1,7-BIS-(3,4- DIMETHOXYPHENYL)-4,4-DISSTITUTED-HEPA-1,6-DIENE-3,5-DI-ONE STRUCTURAL SCAFFOLD,THEIR BIOLOGICAL ACTIVITY, AND USES THEREOF” (Allianz Pharmascience Ltd, priority 2012, dated 2013).
Read-outs that look alike come from different tables or passages of the source. Blank lines part the entries; values can stand above or below the compound they belong to.

What was measured:
[1] = test system: CWR22Rv1 cells (human prostate cancer); assay: MTT cell growth assay, CWR22Rv1 cells; assay type: cell-based; conditions: 5 days, read-out: Inhibition of Tumor cells growth IC50
Procedure: The MTT cell proliferation assay was applied in the present invention to detect the capability of compounds to suppress or inhibit prostate cancer cells growth. […] Briefly, 1 x 10^3 LNCaP or CWR22Rv1 cells suspended in complete medium were plated into each well of a 96-well Microtest III tissue culture plate (Falcon, NJ). Two days later, the medium was replaced with RPMI-1640 medium containing 10% charcoal/dextran-deprived FBS (hormone-deprived fetal bovine serum). Testing compounds were added to the medium at indicated concentrations with or without 1 nM DHT and cells were cultured for 5 days in an incubator (at 37 °C). MTT substrate solution (5 mg/ml in PBS) in 1/10 of volume was added to the cells in each well at 2 hours before harvesting. After 2 hour incubation, the plates were centrifuged (10 min at 1,000 rpm) and the supernatant from each well was carefully removed. A 100 µl of lysis buffer (50% dimethyl formamide, 5% sodium dodecyl sulphate, 0.35 M acetic acid, and 50 mM HCl) was added to each well to lyse the cells and dissolved tetrazolium in each well. The relative quantity of enzyme activity from each well was measured based on absorbance read at a wavelength of 450 nm using a Bio-RAD BenchMark microplate reader. Data derived from the MTT assay were also verified by the actual cell count and cell morphology on a separate plate set up in parallel.
For inhibition of tumor cell growth, in vitro, cells were growth in the presence of testing compounds for 5 days, and the cell growth was assayed by standard MTT assay. […] Table 2: Biological activity of Compounds and Derivatives having (1E, 6E)-1,7-bis-(3,4-dimethoxyphenyl)-4,4-disubstituted-hepta-1,6-diene-3,5-dione OR (1E, 10E)-1,11-bis(substituted phenyl)- 6,6-disubstituted undeca-1,3,8,10-tetraene-5,7-dione structural scaffold

Androgen Receptor (AR) = target: T1, Androgen Receptor (AR) (Homo sapiens, UniProt P10275, H875Y, form not given); assay: Western Blot analysis of AR protein expression in CWR22Rv1 cells; assay type: cell-based; conditions: for IC50: Western blotting
T1 sequence (P10275 1-920 H875Y): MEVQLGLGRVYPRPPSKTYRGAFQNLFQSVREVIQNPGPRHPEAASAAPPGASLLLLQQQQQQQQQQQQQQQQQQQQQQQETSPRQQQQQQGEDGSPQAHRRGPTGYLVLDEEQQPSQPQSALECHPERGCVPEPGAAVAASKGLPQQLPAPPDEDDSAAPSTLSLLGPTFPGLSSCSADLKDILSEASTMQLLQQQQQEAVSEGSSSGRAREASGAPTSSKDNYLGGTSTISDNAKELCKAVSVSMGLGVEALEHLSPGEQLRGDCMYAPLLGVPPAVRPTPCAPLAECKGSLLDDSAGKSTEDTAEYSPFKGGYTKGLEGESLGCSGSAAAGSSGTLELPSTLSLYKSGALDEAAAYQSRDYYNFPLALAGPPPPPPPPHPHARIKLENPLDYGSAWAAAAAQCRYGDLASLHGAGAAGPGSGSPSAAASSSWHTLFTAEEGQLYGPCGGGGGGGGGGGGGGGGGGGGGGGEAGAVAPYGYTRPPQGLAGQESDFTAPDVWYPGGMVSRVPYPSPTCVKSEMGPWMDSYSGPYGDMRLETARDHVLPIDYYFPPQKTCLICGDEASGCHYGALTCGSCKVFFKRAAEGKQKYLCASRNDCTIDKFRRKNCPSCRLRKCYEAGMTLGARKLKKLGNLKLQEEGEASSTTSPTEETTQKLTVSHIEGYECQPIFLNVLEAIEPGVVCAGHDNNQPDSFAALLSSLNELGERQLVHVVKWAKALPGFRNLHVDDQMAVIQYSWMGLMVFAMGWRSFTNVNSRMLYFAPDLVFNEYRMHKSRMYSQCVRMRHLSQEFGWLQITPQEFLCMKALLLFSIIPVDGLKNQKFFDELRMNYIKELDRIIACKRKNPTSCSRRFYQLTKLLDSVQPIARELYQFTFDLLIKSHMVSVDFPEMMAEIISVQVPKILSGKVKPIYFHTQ

[2] = Stability in rat plasma (37°C); assay type: in vitro ADME
From the text: (§1) Also, at 24 hr where stability of JM49 was only 4%, while its derivative Compound 6 had improved to 79%. Similar improvements in stability (from 6- 24 hr) were also observed in the conditions of rat plasma (Table 4) and human plasma (Table 5). […] Table 3. Relative compound concentration changes (stability) in acidic condition

[3] = Stability in acidic condition (0.1 N HCl, 37°C); assay type: physicochemical
From the text: as §1

[4] = Stability in human plasma (37°C); assay type: in vitro ADME; conditions: result in words (Table 5 not given)
From the text: as §1

[5] = 48 h post-incubation, read-out: Reduction of AR expression IC50 (µM) 48 h
[6] = 24 h post-incubation, read-out: Reduction of AR expression IC50 (µM) 24 h

SMILES: COc1ccc(/C=C/C(=O)C(C)(CC2CC2)C(=O)/C=C/c2ccc(OC)c(OC)c2)cc1OC [Compound 1]
- IC50 [1]: 2.4 µM
- IC50 (Androgen Receptor (AR); [5]): 2.1 µM

- IC50 ([1]; Homo sapiens, 120 h): > 7.5 µM
SMILES: COc1ccc(/C=C/C(=O)C(C)(CC2CCC2)C(=O)/C=C/c2ccc(OC)c(OC)c2)cc1OC [Compound 2]

- IC50 ([1]; Homo sapiens, 120 h): 2.6 µM
SMILES: COc1ccc(/C=C/C(=O)C(C)(CC2CCCC2)C(=O)/C=C/c2ccc(OC)c(OC)c2)cc1OC [Compound 4]

SMILES: COc1ccc(/C=C/C(=O)C(C)(CC2CCCCC2)C(=O)/C=C/c2ccc(OC)c(OC)c2)cc1OC [Compound 5]
- IC50 [1]: 4.6 µM
- IC50 (Androgen Receptor (AR); [5]): 4 µM

- IC50 ([1]; Homo sapiens, 120 h): 1.5 µM
- Concentration change (%) (stability) in rat plasma ([2]; 0 h): 100%
- Concentration change (%) (stability) in rat plasma ([2]; 1 h): 98%
- Concentration change (%) (stability) in rat plasma ([2]; 2 h): 96%
- Concentration change (%) (stability) in rat plasma ([2]; 6 h): 93%
- Concentration change (%) (stability) in rat plasma ([2]; 24 h): 77%
- Concentration change (%) (stability) in rat plasma ([2]; 48 h): 51%
- Concentration change (%) (stability) in acidic condition ([3]; 0 h): 100%
- Concentration change (%) (stability) in acidic condition ([3]; 2 h): 100%
- Concentration change (%) (stability) in acidic condition ([3]; 4 h): 99%
- Concentration change (%) (stability) in acidic condition ([3]; 24 h): 79%
- Concentration change (%) (stability) in acidic condition ([3]; 48 h): 56%
- stability in human plasma [4]: unexpectedly and dramatically improved
SMILES: CCN(CC)C(=O)CC(C)(C(=O)/C=C/c1ccc(OC)c(OC)c1)C(=O)/C=C/c1ccc(OC)c(OC)c1 [Compound 6]

- IC50 ([1]; Homo sapiens, 120 h): 2 µM
- Concentration change (%) (stability) in rat plasma ([2]; 0 h): 100%
- Concentration change (%) (stability) in rat plasma ([2]; 1 h): 101%
- Concentration change (%) (stability) in rat plasma ([2]; 2 h): 100%
- Concentration change (%) (stability) in rat plasma ([2]; 6 h): 101%
- Concentration change (%) (stability) in rat plasma ([2]; 24 h): 99%
- Concentration change (%) (stability) in rat plasma ([2]; 48 h): 86%
- Concentration change (%) (stability) in acidic condition ([3]; 0 h): 100%
- Concentration change (%) (stability) in acidic condition ([3]; 1 h): 99%
- Concentration change (%) (stability) in acidic condition ([3]; 2 h): 99%
- Concentration change (%) (stability) in acidic condition ([3]; 4 h): 98%
- Concentration change (%) (stability) in acidic condition ([3]; 24 h): 81%
- Concentration change (%) (stability) in acidic condition ([3]; 48 h): 58%
- stability in human plasma [4]: unexpectedly and dramatically improved
SMILES: COc1ccc(/C=C/C(=O)C(C)(CC(=O)N(C)C)C(=O)/C=C/c2ccc(OC)c(OC)c2)cc1OC [Compound 7]

- IC50 ([1]; Homo sapiens, 120 h): 2.3 µM
SMILES: CCCCC(C)(C(=O)/C=C/c1ccc(OC)c(OC)c1)C(=O)/C=C/c1ccc(OC)c(OC)c1 [Compound 8]

SMILES: COc1ccc(/C=C/C(=O)C(C)(CC(=O)N2CCOCC2)C(=O)/C=C/c2ccc(OC)c(OC)c2)cc1OC [Compound 11]
- IC50 (Androgen Receptor (AR); [6]): 2.2 µM

- IC50 ([1]; Homo sapiens, 120 h): > 5 µM
SMILES: COc1ccc(/C=C/C(=O)C(F)(CC2CC2)C(=O)/C=C/c2ccc(OC)c(OC)c2)cc1OC [Compound 13]

- IC50 ([1]; Homo sapiens, 120 h): 3.6 µM
SMILES: COc1ccc(/C=C/C(=O)C(F)(CC2CCC2)C(=O)/C=C/c2ccc(OC)c(OC)c2)cc1OC [Compound 14]

- IC50 ([1]; Homo sapiens, 120 h): 3.2 µM
SMILES: COc1ccc(/C=C/C(=O)C(F)(CC2CCCC2)C(=O)/C=C/c2ccc(OC)c(OC)c2)cc1OC [Compound 15]

- IC50 ([1]; Homo sapiens, 120 h): 4 µM
SMILES: COc1ccc(/C=C/C(=O)C(F)(CC2CCCCC2)C(=O)/C=C/c2ccc(OC)c(OC)c2)cc1OC [Compound 16]

- IC50 ([1]; Homo sapiens, 120 h): > 7.5 µM
SMILES: CCN(CC)C(=O)CC(F)(C(=O)/C=C/c1ccc(OC)c(OC)c1)C(=O)/C=C/c1ccc(OC)c(OC)c1 [Compound 17]

SMILES: COc1ccc(/C=C/C(=O)C(F)(CC(=O)N(C)C)C(=O)/C=C/c2ccc(OC)c(OC)c2)cc1OC [Compound 18]
- IC50 [1]: > 7.5 µM
- IC50 (Androgen Receptor (AR); [6]): > 5 µM

- IC50 ([1]; Homo sapiens, 120 h): 4.7 µM
SMILES: CCCCC(F)(C(=O)C=Cc1ccc(OC)c(OC)c1)C(=O)C=Cc1ccc(OC)c(OC)c1 (stereo not shown) [Compound 19]

- IC50 ([1]; Homo sapiens, 120 h): 4 µM
SMILES: CCN(CC)C(=O)CC(Cl)(C(=O)/C=C/c1ccc(OC)c(OC)c1)C(=O)/C=C/c1ccc(OC)c(OC)c1 [Compound 20]

- IC50 ([1]; Homo sapiens, 120 h): > 7.5 µM
SMILES: COc1ccc(/C=C/C(=O)C(Cl)(CC(=O)N(C)C)C(=O)/C=C/c2ccc(OC)c(OC)c2)cc1OC [Compound 21]

SMILES: CCOC(=O)CCC(C)(C(=O)/C=C/c1ccc(OC)c(OC)c1)C(=O)/C=C/c1ccc(OC)c(OC)c1 [Compound 22]
- IC50 (Androgen Receptor (AR); [6]): 1.8 µM

SMILES: CCOC(=O)CCC(F)(C(=O)/C=C/c1ccc(OC)c(OC)c1)C(=O)/C=C/c1ccc(OC)c(OC)c1 [Compound 23]
- IC50 (Androgen Receptor (AR); [6]): > 5 µM

SMILES: CCN(CC)C(=O)CC(C)(C(=O)C=CC=Cc1ccc(OC)c(OC)c1)C(=O)C=CC=Cc1ccc(OC)c(OC)c1 (stereo not shown) [Compound 32]
- IC50 (Androgen Receptor (AR); [6]): 2.8 µM

SMILES: CCN(CC)C(=O)CC(C(=O)/C=C/c1ccc(OC)c(OC)c1)C(=O)/C=C/c1ccc(OC)c(OC)c1 [JM49]
- Concentration change (%) (stability) in rat plasma ([2]; 0 h): 100%
- Concentration change (%) (stability) in rat plasma ([2]; 1 h): 68%
- Concentration change (%) (stability) in rat plasma ([2]; 2 h): 54%
- Concentration change (%) (stability) in rat plasma ([2]; 6 h): 27%
- Concentration change (%) (stability) in rat plasma ([2]; 24 h): 2%
- Concentration change (%) (stability) in rat plasma ([2]; 48 h): 0%
- Concentration change (%) (stability) in acidic condition ([3]; 0 h): 100%
- Concentration change (%) (stability) in acidic condition ([3]; 1 h): 73%
- Concentration change (%) (stability) in acidic condition ([3]; 2 h): 56%
- Concentration change (%) (stability) in acidic condition ([3]; 6 h): 38%
- Concentration change (%) (stability) in acidic condition ([3]; 24 h): 4%
- stability in human plasma [4]: chemically unstable
- reducing endogenous AR expression (Androgen Receptor (AR); various concentrations, Western Blot (FIG. 6)): capable of reducing endogenous AR expression

- Concentration change (%) (stability) in rat plasma ([2]; 0 h): 100%
- Concentration change (%) (stability) in rat plasma ([2]; 1 h): 93%
- Concentration change (%) (stability) in rat plasma ([2]; 2 h): 88%
- Concentration change (%) (stability) in rat plasma ([2]; 6 h): 73%
- Concentration change (%) (stability) in rat plasma ([2]; 24 h): 27%
- Concentration change (%) (stability) in rat plasma ([2]; 48 h): 7%
- Concentration change (%) (stability) in acidic condition ([3]; 0 h): 100%
- Concentration change (%) (stability) in acidic condition ([3]; 1 h): 14%
- Concentration change (%) (stability) in acidic condition ([3]; 2 h): 8%
- Concentration change (%) (stability) in acidic condition ([3]; 6 h): 0%
- Concentration change (%) (stability) in acidic condition ([3]; 24 h): 0%
- stability in human plasma [4]: chemically unstable
SMILES: COc1ccc(/C=C/C(=O)C(CC(=O)N(C)C)=C(O)/C=C/c2ccc(OC)c(OC)c2)cc1OC [JM77]
